7 compounds from patent publication US10793563B2, “GCN2 inhibitors and uses thereof” (Merck Patent GmbH, priority 2018, dated 2020) can be followed below.

Bounds are passed on as bounds.

The target in one experiment is GCN2 kinase (Homo sapiens (Human), UniProt Q9P2K8). The experiment in a line: GCN2 Enzyme Inhibition Assay (Transcreener ADP2 fluorescence polarization). Type of experiment: biochemical. The settings on record: 280 μM ATP, 200 μM (RS)7 peptide, 4 nM GCN2, 25° C. Summed up:
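Transcreener ADP2 fluorescence polarization detection of ADP from 4 nM GCN2 with (RS)7 substrate in 25 mM Tris-HCl pH 7.5, 50 mM NaCl, 10 mM MgCl2, 1 mM DTT. Compound pre-incubated with enzyme 10 min at 25 °C; reaction started by ATP, run 1 h at 25 °C. IC50 and Ki(app) by tight-binding fit.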
A general note: In fluorescence polarisation assays a small probe gives low polarisation when free and higher when bound to something large.

Experiment [1] has as its target intracellular GCN2 (phosphorylation of the GCN2 substrate eIF2α) (Homo sapiens (Human), UniProt Q9P2K8). The experiment in a line: GCN2 Cellular Inhibition Assay (AlphaScreen SureFire P-eIF2α Ser51, borrelidin-treated U2OS cells). Format: cell-based. The settings on record: 10 μM borrelidin, 1 h, phosphorylated eIF2α Ser51, read-out: GCN2 Biomarker (IC50). A digest of the protocol: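 U2OS cells adhered overnight, then given compound (top 40 μM, 4-fold serial dilutions) plus 10 μM borrelidin for 1 h at 37 °C. Lysates assayed for eIF2α phospho-Ser51 by AlphaScreen SureFire; % inhibition versus borrelidin-only wells.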

In experiment [2] the test system is primary human pan T-cells. The experiment in a line: Human IL-2 Assay for GCN2 Inhibition (IL-2 secretion from T cells in low amino acid condition). The following applies: Homo sapiens, T-cell, 96 h, IL-2 secretion from human T cells stimulated with anti-CD3/CD28 in low amino acid condition, ELISA, read-out: IL2/T-cell EC50. Format: cell-based. A digest of the protocol:
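Pan T-cells (5×10^4/well) in RPMI lacking one amino acid (e.g. Trp, Arg) with 10% charcoal-stripped FBS; that amino acid titrated from none to 20 μM Trp or 950 μM Arg. Compound given 30 min at 37 °C before anti-CD3/CD28 bead stimulation; supernatant IL-2 by ELISA after 96 h; EC50 calculated.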
A general note: An ELISA detects its analyte on a solid surface through an enzyme-linked reagent.

Sequence of GCN2 kinase (Q9P2K8 whole entry): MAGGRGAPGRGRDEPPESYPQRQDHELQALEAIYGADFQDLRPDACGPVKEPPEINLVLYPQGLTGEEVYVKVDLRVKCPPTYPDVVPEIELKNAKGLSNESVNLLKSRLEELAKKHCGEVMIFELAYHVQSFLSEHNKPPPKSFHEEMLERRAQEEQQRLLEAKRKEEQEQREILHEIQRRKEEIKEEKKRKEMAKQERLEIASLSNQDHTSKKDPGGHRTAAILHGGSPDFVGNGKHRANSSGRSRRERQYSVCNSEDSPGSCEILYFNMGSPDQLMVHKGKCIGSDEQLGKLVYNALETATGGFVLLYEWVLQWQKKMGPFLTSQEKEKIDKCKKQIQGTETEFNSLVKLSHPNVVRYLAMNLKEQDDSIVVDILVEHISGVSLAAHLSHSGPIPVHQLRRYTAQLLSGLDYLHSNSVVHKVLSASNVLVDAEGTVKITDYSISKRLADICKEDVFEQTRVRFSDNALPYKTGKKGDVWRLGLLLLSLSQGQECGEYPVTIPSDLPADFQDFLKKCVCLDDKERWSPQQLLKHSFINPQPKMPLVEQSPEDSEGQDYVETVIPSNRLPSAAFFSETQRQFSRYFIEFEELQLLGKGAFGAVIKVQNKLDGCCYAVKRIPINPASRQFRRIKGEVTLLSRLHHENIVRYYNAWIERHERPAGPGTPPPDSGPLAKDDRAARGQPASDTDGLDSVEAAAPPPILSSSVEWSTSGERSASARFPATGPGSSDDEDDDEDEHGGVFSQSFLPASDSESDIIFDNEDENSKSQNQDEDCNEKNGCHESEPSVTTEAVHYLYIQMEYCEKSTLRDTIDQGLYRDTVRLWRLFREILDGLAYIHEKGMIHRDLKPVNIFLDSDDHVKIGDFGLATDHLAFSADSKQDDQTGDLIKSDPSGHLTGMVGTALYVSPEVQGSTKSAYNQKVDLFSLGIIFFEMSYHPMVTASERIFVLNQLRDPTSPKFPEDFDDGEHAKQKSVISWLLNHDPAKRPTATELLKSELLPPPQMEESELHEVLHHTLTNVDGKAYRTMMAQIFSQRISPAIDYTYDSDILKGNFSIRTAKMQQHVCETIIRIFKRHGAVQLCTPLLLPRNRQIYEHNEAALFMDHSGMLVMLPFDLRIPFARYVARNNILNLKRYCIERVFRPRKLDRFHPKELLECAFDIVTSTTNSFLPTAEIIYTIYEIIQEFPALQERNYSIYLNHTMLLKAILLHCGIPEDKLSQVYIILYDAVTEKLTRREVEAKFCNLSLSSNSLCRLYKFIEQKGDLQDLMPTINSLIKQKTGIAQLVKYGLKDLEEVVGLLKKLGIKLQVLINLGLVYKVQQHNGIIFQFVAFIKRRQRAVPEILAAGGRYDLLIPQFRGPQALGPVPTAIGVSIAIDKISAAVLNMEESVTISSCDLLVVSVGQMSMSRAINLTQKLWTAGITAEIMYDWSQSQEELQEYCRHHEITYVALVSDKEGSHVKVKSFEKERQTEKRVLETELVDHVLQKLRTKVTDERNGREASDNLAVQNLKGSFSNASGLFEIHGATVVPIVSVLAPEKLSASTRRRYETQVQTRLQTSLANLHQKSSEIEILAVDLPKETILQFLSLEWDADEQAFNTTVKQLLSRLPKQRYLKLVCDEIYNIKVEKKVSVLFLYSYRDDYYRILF
Sequence of intracellular GCN2 (phosphorylation of the GCN2 substrate eIF2α) (Q9P2K8 whole entry): as above

For `NC(=O)[C@H]1CCCN(c2ccnc(-c3cnc4ccc(Cl)cn34)n2)C1` [I-102, (S)-1-(2-(6-chloroimidazo[1,2-a]pyridin-3-yl)pyrimidin-4-yl)piperidine-3-carboxamide], the Ki at GCN2 kinase (Ki(app)) is less than 10 nM. In addition, the IC50 – broadly, the concentration needed to halve the response being measured – in experiment [1] is less than 500 nM. Besides, the EC50 in experiment [2] fell in the range of 100 to 500 nM.

Take `Cc1[nH]ncc1[C@H]1[C@@H](C)N(c2ccnc(-c3cnc4ccc(C(F)(F)F)cn34)n2)CCN1C1COC1` [I-366]: the IC50 at GCN2 kinase is less than 10 nM; in experiment [1], less than 500 nM. In addition, the EC50 in experiment [2] is less than 100 nM.

For the compound `C[C@H]1CN(c2nccc(-c3cnc4ccc(C(F)(F)F)cn34)n2)C[C@@H](c2cn[nH]c2)O1` [I-126, (2S,6R)-2-methyl-6-(1H-pyrazol-4-yl)-4-{4-[6-(trifluoromethyl)imidazo[1,2-a]pyridin-3-yl]pyrimidin-2-yl}morpholine], the IC50 is less than 10 nM against GCN2 kinase and less than 500 nM in experiment [1]. In experiment [2], the EC50 fell in the range of 100 to 500 nM.

Take `C[C@H]1CN(c2nccc(-c3cnc4ccc(C(F)(F)F)cn34)n2)C[C@H](c2cn[nH]c2)O1` [I-134, (2S,6S)-2-methyl-6-(1H-pyrazol-4-yl)-4-(4-(6-(trifluoromethyl)imidazo[1,2-a]pyridin-3-yl)pyrimidin-2-yl)morpholine]: the IC50 is 10 to 100 nM against GCN2 kinase and less than 500 nM in experiment [1]. For the same compound, the EC50 in experiment [2] is more than 500 nM.

With `FC(F)(F)c1ccc2ncc(-c3nccc(N4CCN(C5CC6(COC6)C5)[C@H](c5cn[nH]c5)C4)n3)n2c1` [I-504, (R)-3-(4-(3-(1H-pyrazol-4-yl)-4-(2-oxaspiro[3.3]heptan-6-yl)piperazin-1-yl)pyrimidin-2-yl)-6-(trifluoromethyl)imidazo[1,2-a]pyridine], the IC50 on GCN2 kinase was less than 10 nM; in experiment [1], less than 500 nM. Moreover, the EC50 in experiment [2] lay in the range of 100 to 500 nM.

Turning to `Cc1n[nH]cc1[C@@H]1CN(c2ccnc(-c3cnc4cc(Cl)c(C(F)(F)F)cn34)n2)C[C@H](C)O1` [I-359, (2S,6R)-4-(2-(7-chloro-6-(trifluoromethyl)imidazo[1,2-a]pyridin-3-yl)pyrimidin-4-yl)-2-methyl-6-(3-methyl-1H-pyrazol-4-yl)morpholine], the IC50 is less than 10 nM at GCN2 kinase and less than 500 nM in experiment [1]. In experiment [2], the EC50 is 100 to 500 nM.

In the case of `C[C@H]1[C@@H](c2cn[nH]c2)N(CC2(C)COC2)CCN1c1ccnc(-c2cnc3ccc(C(F)(F)F)cn23)n1` [I-481, 3-(4-((2 S,3R)-2-methyl-4-((3-methyloxetan-3-yl)methyl)-3-(1H-pyrazol-4-yl)piperazin-1-yl)pyrimidin-2-yl)-6-(trifluoromethyl)imidazo[1,2-a]pyridine], the IC50 against GCN2 kinase was less than 10 nM; in experiment [1], less than 500 nM. Further, the EC50 in experiment [2] is less than 100 nM.
